# Columns and labels:
# MIF = target: T1, MIF (Homo sapiens, UniProt P14174); test: Nuclease assay of Example 3 (MIF inhibitory activity, Table 4); format: biochemical; design: (%) inhibition of MIF nuclease activity: concentration or dose not given beside the values; settings: nuclease assay of Example 3
# T1 sequence (P14174 1-115): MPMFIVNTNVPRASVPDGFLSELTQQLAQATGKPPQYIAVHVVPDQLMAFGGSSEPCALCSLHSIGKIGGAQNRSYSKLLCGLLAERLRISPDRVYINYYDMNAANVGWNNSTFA
# Procedure, shortened: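 Human genomic DNA (200 ng), pcDNA (200 ng) or PS^30-type substrates (1 μM) were incubated with MIF (0.25-8 μM final) in 10 mM Tris-HCl pH 7.0, 10 mM MgCl2, 1 mM DTT at 37 °C for 1 h (pcDNA, small substrates) or 4 h (genomic DNA). Cleavage was assessed by agarose or PAGE electrophoresis with EtBr staining and chemiluminescent detection of biotin-labelled DNA.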
# [1] = system: HeLa cells or neuronal cells; test: Cell death assay of Example 3 (MNNG, alamarBlue; protection against parthanatos, Table 4); format: cell-based; settings: 1 μM test compound, MNNG-induced cell death, alamarBlue
# Procedure, shortened: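 HeLa or neuronal cells (1×10^4/well) were pretreated 1 h at 37° C with 1 μM compound, exposed to MNNG for 15 min, washed, then re-incubated 18 h with 1 μM compound. Viability was read by alamarBlue fluorescence (ex 560/em 590 nm). Cell death was expressed relative to control wells.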
(%) inhibition of MIF nuclease activity (MIF) [%],Compound,(%) inhibition of cell death [1] [%]
20.1,COCC[C@@H]1NC(=O)[C@H](Cc2ccccc2)N(C)C(=O)[C@@H](C)NC(=O)CN(C)C(=O)COc2cccc(c2)[C@@H](CCc2ccc(OC)c(OC)c2)OC(=O)[C@@H]2CCCCN2C(=O)C(=O)C(C)(C)COC(=O)C=CCCN(C)C1=O [compound 65],54.4
67.0,COc1ccc(CC[C@H]2OC(=O)[C@@H]3CCCCN3C(=O)C(=O)C(C)(C)COC(=O)C=CCCN(C)C(=O)[C@H](CC(C)C)NC(=O)[C@H](Cc3ccccc3)N(C)C(=O)[C@@H](C)NC(=O)CN(C)C(=O)COc3cccc2c3)cc1OC [compound 66],71.4
76.3,COc1ccc(CC[C@H]2OC(=O)[C@@H]3CCCCN3C(=O)C(=O)C(C)(C)COC(=O)C=CCCN(C)C(=O)[C@@H](CC(C)C)NC(=O)[C@H](Cc3ccccc3)N(C)C(=O)[C@@H](C)NC(=O)CN(C)C(=O)COc3cccc2c3)cc1OC [compound 67],73.7
44.0,COc1ccc(CC[C@H]2OC(=O)[C@@H]3CCCCN3C(=O)C(=O)C(C)(C)COC(=O)C=CCCN(C)C(=O)[C@H](Cc3ccccc3)NC(=O)[C@H](Cc3ccccc3)N(C)C(=O)[C@@H](C)NC(=O)CN(C)C(=O)COc3cccc2c3)cc1OC [compound 68],58.0
20.7,COc1ccc(CC[C@H]2OC(=O)[C@@H]3CCCCN3C(=O)C(=O)C(C)(C)COC(=O)C=CCCN(C)C(=O)[C@@H](Cc3ccccc3)NC(=O)[C@H](Cc3ccccc3)N(C)C(=O)[C@@H](C)NC(=O)CN(C)C(=O)COc3cccc2c3)cc1OC [compound 69],55.7
25.2,COc1ccc(CC[C@H]2OC(=O)[C@@H]3CCCCN3C(=O)C(=O)C(C)(C)COC(=O)C=CCCN(C)C(=O)[C@H](Cc3ccc(F)cc3)NC(=O)[C@H](Cc3ccccc3)N(C)C(=O)[C@@H](C)NC(=O)CN(C)C(=O)COc3cccc2c3)cc1OC [compound 70],53.8
25.3,COc1ccc(CC[C@H]2OC(=O)[C@@H]3CCCCN3C(=O)C(=O)C(C)(C)COC(=O)C=CCCN(C)C(=O)[C@@H]3CCCN3C(=O)[C@H](Cc3ccccc3)N(C)C(=O)[C@@H](C)NC(=O)CN(C)C(=O)COc3cccc2c3)cc1OC [compound 71],57.0
21.2,COc1ccc(CC[C@H]2OC(=O)[C@@H]3CCCCN3C(=O)C(=O)C(C)(C)COC(=O)C=CCCN(C)C(=O)[C@H](CC3CCCCC3)NC(=O)[C@H](Cc3ccccc3)N(C)C(=O)[C@@H](C)NC(=O)CN(C)C(=O)COc3cccc2c3)cc1OC [compound 72],55.3
40.2,COc1ccc(CC[C@H]2OC(=O)[C@@H]3CCCCN3C(=O)C(=O)C(C)(C)COC(=O)C=CCCN(C)C(=O)[C@H](Cc3ccc4ccccc4c3)NC(=O)[C@H](Cc3ccccc3)N(C)C(=O)[C@@H](C)NC(=O)CN(C)C(=O)COc3cccc2c3)cc1OC [compound 73],53.0
31.5,COc1ccc(CC[C@H]2OC(=O)[C@@H]3CCCCN3C(=O)C(=O)C(C)(C)COC(=O)C=CCCN(C)C(=O)[C@H](C(C)C)NC(=O)[C@H](Cc3ccccc3)N(C)C(=O)[C@@H](C)NC(=O)CN(C)C(=O)COc3cccc2c3)cc1OC [compound 74],52.6
34.9,COc1ccc(CC[C@H]2OC(=O)[C@@H]3CCCCN3C(=O)C(=O)C(C)(C)COC(=O)C=CCCN(C)C(=O)[C@H](c3ccccc3)NC(=O)[C@H](Cc3ccccc3)N(C)C(=O)[C@@H](C)NC(=O)CN(C)C(=O)COc3cccc2c3)cc1OC [compound 75],52.8
6.7,CCC[C@@H]1NC(=O)[C@H](C(C)C)N(C)C(=O)[C@@H](Cc2ccccc2)NC(=O)[C@H](CC(C)C)N(C)C(=O)CCC(=O)Nc2cccc(c2)[C@@H](CCc2ccc(OC)c(OC)c2)OC(=O)[C@@H]2CCCCN2C(=O)C(=O)C(C)(C)COC(=O)C=CCCN(C)C1=O [compound 79],43.4
10.3,COCC[C@@H]1NC(=O)[C@H](C(C)C)N(C)C(=O)[C@@H](Cc2ccccc2)NC(=O)[C@H](CC(C)C)N(C)C(=O)CCC(=O)Nc2cccc(c2)[C@@H](CCc2ccc(OC)c(OC)c2)OC(=O)[C@@H]2CCCCN2C(=O)C(=O)C(C)(C)COC(=O)C=CCCN(C)C1=O [compound 80],49.5
12.3,COc1ccc(CC[C@H]2OC(=O)[C@@H]3CCCCN3C(=O)C(=O)C(C)(C)COC(=O)C=CCCN(C)C(=O)[C@H](CC(C)C)NC(=O)[C@H](C(C)C)N(C)C(=O)[C@@H](Cc3ccccc3)NC(=O)[C@H](CC(C)C)N(C)C(=O)CCC(=O)Nc3cccc2c3)cc1OC [compound 81],49.8
8.5,COc1ccc(CC[C@H]2OC(=O)[C@@H]3CCCCN3C(=O)C(=O)C(C)(C)COC(=O)C=CCCN(C)C(=O)[C@@H](CC(C)C)NC(=O)[C@H](C(C)C)N(C)C(=O)[C@@H](Cc3ccccc3)NC(=O)[C@H](CC(C)C)N(C)C(=O)CCC(=O)Nc3cccc2c3)cc1OC [compound 82],47.0
12.0,COc1ccc(CC[C@H]2OC(=O)[C@@H]3CCCCN3C(=O)C(=O)C(C)(C)COC(=O)C=CCCN(C)C(=O)[C@H](Cc3ccccc3)NC(=O)[C@H](C(C)C)N(C)C(=O)[C@@H](Cc3ccccc3)NC(=O)[C@H](CC(C)C)N(C)C(=O)CCC(=O)Nc3cccc2c3)cc1OC [compound 83],49.8
10.8,COc1ccc(CC[C@H]2OC(=O)[C@@H]3CCCCN3C(=O)C(=O)C(C)(C)COC(=O)C=CCCN(C)C(=O)[C@@H](Cc3ccccc3)NC(=O)[C@H](C(C)C)N(C)C(=O)[C@@H](Cc3ccccc3)NC(=O)[C@H](CC(C)C)N(C)C(=O)CCC(=O)Nc3cccc2c3)cc1OC [compound 84],51.0
10.7,COc1ccc(CC[C@H]2OC(=O)[C@@H]3CCCCN3C(=O)C(=O)C(C)(C)COC(=O)C=CCCN(C)C(=O)[C@H](Cc3ccc(F)cc3)NC(=O)[C@H](C(C)C)N(C)C(=O)[C@@H](Cc3ccccc3)NC(=O)[C@H](CC(C)C)N(C)C(=O)CCC(=O)Nc3cccc2c3)cc1OC [compound 85],49.4
22.7,COc1ccc(CC[C@H]2OC(=O)[C@@H]3CCCCN3C(=O)C(=O)C(C)(C)COC(=O)C=CCCN(C)C(=O)[C@@H]3CCCN3C(=O)[C@H](C(C)C)N(C)C(=O)[C@@H](Cc3ccccc3)NC(=O)[C@H](CC(C)C)N(C)C(=O)CCC(=O)Nc3cccc2c3)cc1OC [compound 86],53.0
17.1,COc1ccc(CC[C@H]2OC(=O)[C@@H]3CCCCN3C(=O)C(=O)C(C)(C)COC(=O)C=CCCN(C)C(=O)[C@H](CC3CCCCC3)NC(=O)[C@H](C(C)C)N(C)C(=O)[C@@H](Cc3ccccc3)NC(=O)[C@H](CC(C)C)N(C)C(=O)CCC(=O)Nc3cccc2c3)cc1OC [compound 87],51.3
21.3,COc1ccc(CC[C@H]2OC(=O)[C@@H]3CCCCN3C(=O)C(=O)C(C)(C)COC(=O)C=CCCN(C)C(=O)[C@H](Cc3ccc4ccccc4c3)NC(=O)[C@H](C(C)C)N(C)C(=O)[C@@H](Cc3ccccc3)NC(=O)[C@H](CC(C)C)N(C)C(=O)CCC(=O)Nc3cccc2c3)cc1OC [compound 88],52.7
12.6,COc1ccc(CC[C@H]2OC(=O)[C@@H]3CCCCN3C(=O)C(=O)C(C)(C)COC(=O)C=CCCN(C)C(=O)[C@H](C(C)C)NC(=O)[C@H](C(C)C)N(C)C(=O)[C@@H](Cc3ccccc3)NC(=O)[C@H](CC(C)C)N(C)C(=O)CCC(=O)Nc3cccc2c3)cc1OC [compound 89],49.9
15.8,COc1ccc(CC[C@H]2OC(=O)[C@@H]3CCCCN3C(=O)C(=O)C(C)(C)COC(=O)C=CCCN(C)C(=O)[C@H](c3ccccc3)NC(=O)C(C(C)C)N(C)C(=O)[C@@H](Cc3ccccc3)NC(=O)[C@H](CC(C)C)N(C)C(=O)CCC(=O)Nc3cccc2c3)cc1OC (some centres unmarked) [compound 90],48.5

Compound,(%) inhibition of MIF nuclease activity (MIF) [%],(%) inhibition of cell death [1] [%]
COc1ccc(CC[C@H]2OC(=O)[C@@H]3CCCCN3C(=O)C(=O)C(C)(C)COC(=O)C=CCCN(C)C(=O)[C@@H](C)NC(=O)[C@H](C(C)C)N(C)C(=O)[C@@H](Cc3ccccc3)NC(=O)[C@H](CC(C)C)N(C)C(=O)CCC(=O)Nc3cccc2c3)cc1OC [compound 78],9.0,44.7
COc1ccc(CC[C@H]2OC(=O)[C@@H]3CCCCN3C(=O)C(=O)C(C)(C)COC(=O)C=CCCN(C)C(=O)[C@H]3CCCN3C(=O)[C@H](COC(C)(C)C)N(C)C(=O)C(c3ccccc3)NC(=O)[C@H](C)N(C)C(=O)COc3cccc2c3)cc1OC (some centres unmarked) [compound 91],25.8,62.7

# Source: patent US20220372014A1, “NEUROPROTECTIVE COMPOUNDS AND METHODS OF USE THEREOF” (The Johns Hopkins University, priority 2019, published 2022)
